Experimental findings from paper PMC9946977, “Identification of linderalactone as a natural inhibitor of SHP2 to ameliorate CCl4-induced liver fibrosis” (Frontiers in Pharmacology, 2023) are described below.

The assay addresses T1, SHP2 PTP domain (Homo sapiens, UniProt Q06124).
T1 construct: Human SHP2 PTP domain (A237–I529) expression constructs; His-tag; made in house; host or cells: E. coli BL21 (DE3)
T1 sequence (Q06124 237-529): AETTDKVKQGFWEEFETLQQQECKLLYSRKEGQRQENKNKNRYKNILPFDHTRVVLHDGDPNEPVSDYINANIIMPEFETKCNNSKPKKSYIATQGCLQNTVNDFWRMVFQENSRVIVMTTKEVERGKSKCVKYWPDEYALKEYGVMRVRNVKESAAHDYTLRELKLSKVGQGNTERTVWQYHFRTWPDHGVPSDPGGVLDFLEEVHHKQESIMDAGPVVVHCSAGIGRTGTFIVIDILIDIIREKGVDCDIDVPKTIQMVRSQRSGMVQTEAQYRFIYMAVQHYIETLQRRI
In words: SHP2 inhibition assay (DiFMUP) with SHP2-PTP; HTS and dose-response. The assay is classed as biochemical. The note with it: 0.5 nM SHP2-PTP, DiFMUP substrate, 30 min co-incubation at 20°C; read-out: IC50 against the SHP2 PTP domain. As for the experimental part: Human SHP2 PTP domain (A237–I529) expression constructs were engineered by cloning PTPN11 (NP_002825.3) into the pET30 plasmid with a His-tag to support further protein purification. The K366A/Q510A double mutation was introduced into the wild-type template using a site-directed mutagenesis kit (E0554S; New England Biolabs). The expression constructs were sequenced and transformed into BL21 (DE3)-competent cells. E. coli cells were grown at 37°C in an LB culture medium in the presence of […] kanamycin until the OD600 reached 1.0. The medium was then cooled to 18°C and 1 mM isopropyl ß-D-1-thiogalactopyranoside (IPTG) was added to induce protein expression overnight.
A surrogate phosphatase substrate, 6,8-difluoro-4-methylumbelliferyl phosphate (DiFMUP, Thermo Fisher, #D22065), was used to monitor the catalytic activity of SHP2 in a prompt fluorescence assay format. Specifically, the DiFMUP phosphatase assay was performed at 20°C in a 384-well Griener CELLSTAR black polystyrene plate in the buffer condition of 60 mM HEPES (pH7.5), 75 mM NaCl, 75 mM KCl, 1 mM EDTA, 0.05% Tween-20, 5 mM dithiothreitol (DTT). The final reaction volume was 25 μL. NP compound libraries were obtained from TargetMol at a stock concentration of 10 mM, dissolved in DMSO. The purity of the active compound LIN used in this study is 96.27% as tested by HPLC analysis. The HPLC traces is shown in Supporting Information. We co-incubated 0.5 nM of SHP2-PTP enzyme with tested NPs for 30 min at 20°C, followed by the addition of DiFMUP into the reaction. After 30 min, 5 μL of bpV(phen) solution was added to quench the dephosphorylation reaction. The signals were read on a plate reader (SpectraMax iD5, Molecular Devices). The excitation and emission wavelengths were 340 and 450 nm, respectively. The inhibitor dose-response curves were evaluated using a normalised IC50 regression curve fitting with control-based normalisation. For the full-length SHP2 inhibition assay, 0.5 μM of a bisphosphorylated pIRS-1 peptide (ChinaPeptides Ltd. Shanghai) was added for partial SHP2 activation. […]

In the case of `C=C1C2CC2[C@@]2(C)Cc3occ(C)c3C(O)C12` (stereo partly shown) [Lindenenol, lindenenol], the IC50 is 12.6 ± 4.2 µM.
